Results published in patent US20150018301A1, “LRRK-2-Mediated Neuronal Toxicity” (THE JOHNS HOPKINS UNIVERSITY, priority 2009, published 2015).

What was measured:
[1] = target: T1, LRRK2 WT (Homo sapiens, UniProt Q5S007); test: In vitro kinase assay: LRRK2 autophosphorylation; format: biochemical; details: for IC50: mean of three experiments; for LRRK2 autophosphorylation Average ± SEM: compound 16 μM, phosphorylation normalized to absence of compound, mean ± S.E.M. of three experiments; for effect on LRRK2 autophosphorylation: screen at 16 μM
T1 sequence (Q5S007 whole entry): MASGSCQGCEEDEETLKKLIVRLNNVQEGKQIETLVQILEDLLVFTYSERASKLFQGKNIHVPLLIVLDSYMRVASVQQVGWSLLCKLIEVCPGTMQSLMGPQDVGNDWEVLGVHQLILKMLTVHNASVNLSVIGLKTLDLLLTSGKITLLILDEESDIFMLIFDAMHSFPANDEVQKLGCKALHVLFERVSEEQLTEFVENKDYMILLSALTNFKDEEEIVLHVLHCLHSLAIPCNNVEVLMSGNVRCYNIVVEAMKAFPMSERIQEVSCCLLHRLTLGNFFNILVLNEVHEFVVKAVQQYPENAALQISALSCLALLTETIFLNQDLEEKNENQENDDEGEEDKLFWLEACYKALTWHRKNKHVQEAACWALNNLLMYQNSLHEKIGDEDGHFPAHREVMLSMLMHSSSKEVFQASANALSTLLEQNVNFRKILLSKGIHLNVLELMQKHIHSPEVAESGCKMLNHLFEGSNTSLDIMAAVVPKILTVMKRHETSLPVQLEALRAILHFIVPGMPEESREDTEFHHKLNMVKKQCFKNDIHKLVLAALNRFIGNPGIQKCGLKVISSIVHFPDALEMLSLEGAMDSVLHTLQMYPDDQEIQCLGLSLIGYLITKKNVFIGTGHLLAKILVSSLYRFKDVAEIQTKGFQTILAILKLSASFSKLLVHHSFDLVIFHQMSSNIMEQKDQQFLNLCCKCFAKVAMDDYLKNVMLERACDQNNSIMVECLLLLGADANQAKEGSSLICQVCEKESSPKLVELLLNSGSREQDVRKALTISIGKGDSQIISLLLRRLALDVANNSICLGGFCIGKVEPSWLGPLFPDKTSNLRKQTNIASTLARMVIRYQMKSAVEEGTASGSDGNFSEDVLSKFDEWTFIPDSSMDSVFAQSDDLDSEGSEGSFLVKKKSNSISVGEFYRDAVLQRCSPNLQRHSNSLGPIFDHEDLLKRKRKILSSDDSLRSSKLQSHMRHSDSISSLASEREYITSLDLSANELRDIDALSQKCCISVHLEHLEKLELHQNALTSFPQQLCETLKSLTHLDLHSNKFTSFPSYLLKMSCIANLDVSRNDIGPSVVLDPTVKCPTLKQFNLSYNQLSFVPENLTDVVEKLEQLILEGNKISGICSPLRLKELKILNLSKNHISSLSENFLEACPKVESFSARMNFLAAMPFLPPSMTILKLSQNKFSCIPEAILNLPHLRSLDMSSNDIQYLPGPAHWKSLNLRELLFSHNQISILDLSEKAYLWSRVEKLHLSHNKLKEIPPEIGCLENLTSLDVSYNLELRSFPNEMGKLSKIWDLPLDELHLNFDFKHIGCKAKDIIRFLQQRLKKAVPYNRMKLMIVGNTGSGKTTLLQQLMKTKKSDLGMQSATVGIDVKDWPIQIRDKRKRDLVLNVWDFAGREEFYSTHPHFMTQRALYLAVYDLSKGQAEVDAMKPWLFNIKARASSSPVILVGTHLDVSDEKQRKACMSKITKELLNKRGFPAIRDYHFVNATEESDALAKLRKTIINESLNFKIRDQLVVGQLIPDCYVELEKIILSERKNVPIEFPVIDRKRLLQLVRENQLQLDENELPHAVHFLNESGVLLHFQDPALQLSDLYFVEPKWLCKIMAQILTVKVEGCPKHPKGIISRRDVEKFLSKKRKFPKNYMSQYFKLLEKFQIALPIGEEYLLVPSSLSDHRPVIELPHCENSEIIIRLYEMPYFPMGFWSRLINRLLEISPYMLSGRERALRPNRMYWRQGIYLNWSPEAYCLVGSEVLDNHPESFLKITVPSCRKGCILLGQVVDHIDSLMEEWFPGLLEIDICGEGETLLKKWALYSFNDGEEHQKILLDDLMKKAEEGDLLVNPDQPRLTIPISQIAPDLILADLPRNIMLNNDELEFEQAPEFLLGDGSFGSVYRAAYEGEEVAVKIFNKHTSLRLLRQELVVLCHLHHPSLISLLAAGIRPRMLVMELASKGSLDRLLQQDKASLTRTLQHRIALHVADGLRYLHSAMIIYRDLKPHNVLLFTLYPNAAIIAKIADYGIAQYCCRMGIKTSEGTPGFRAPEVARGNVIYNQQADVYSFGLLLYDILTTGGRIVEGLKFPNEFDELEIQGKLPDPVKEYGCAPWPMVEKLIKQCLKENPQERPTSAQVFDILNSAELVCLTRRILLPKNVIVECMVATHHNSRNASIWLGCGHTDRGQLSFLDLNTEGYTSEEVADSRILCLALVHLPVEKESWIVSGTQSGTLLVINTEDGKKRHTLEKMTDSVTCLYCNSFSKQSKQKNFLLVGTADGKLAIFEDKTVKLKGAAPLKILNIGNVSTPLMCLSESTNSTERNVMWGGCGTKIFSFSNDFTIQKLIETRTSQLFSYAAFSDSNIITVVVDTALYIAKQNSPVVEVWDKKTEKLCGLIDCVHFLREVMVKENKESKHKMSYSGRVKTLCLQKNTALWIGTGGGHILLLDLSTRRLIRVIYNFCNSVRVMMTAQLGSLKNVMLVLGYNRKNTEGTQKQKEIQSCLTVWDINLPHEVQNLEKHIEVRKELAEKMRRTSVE

[2] = target: T1, LRRK2 WT; test: In vitro kinase assay: LRRK2-mediated MBP phosphorylation; format: biochemical; details: for IC50: mean of three experiments; for MBP phosphorylation Average ± SEM: compound 16 μM, 30° C., 15 min, normalized to absence of compound, mean ± S.E.M. of three experiments; for effect on LRRK2-mediated phosphorylation of MBP: screen at 16 μM
[3] = target: T2, LRRK2 G2019S (Homo sapiens, UniProt Q5S007, G2019S); test: In vitro kinase assay: G2019S LRRK2 autophosphorylation; format: biochemical; details: mean of three experiments
T2 sequence (Q5S007 whole entry G2019S): as the sequence (Q5S007 whole entry) above, with G2019S counted along it
Description: (§1) Transfection was performed by using Fugene HD reagent (Roche Applied Science) according to the manufacturer's instruction. For purification of recombinant LRRK1 and LRRK2 proteins, ACTA Purifier (GE Healthcare) FPLC system was used.
(§2) Resulting lysates were rotated at 4° C. for 30 min followed by centrifugation at 20,000×g for 15 min. The supernatants were injected into a GSTrap FF column pre-equilibrated with PBS at 0.5. mL/min flow after filtration using a 0.2 μm syringe filter (Corning). The bound proteins were eluted with buffer containing 10 mM GSH (Sigma), 150 mM NaCl, and 50 mM Tris-HCl (pH 8.0).
(§3) The in vitro kinase assay was performed as previously described. […] Recombinant LRRK2 and MBP or CST-4E-BP1 were combined before the kinase reaction. LRRK2 autophosphorylation is LRRK2 itself phosphorylation and MBP or GST-4E-BP1 phosphorylation is induced by LRRK2. After the kinase reaction, combined LRRK2 and MBP or GST-4E-BP1 were loaded on SDSPAGE and phosphorylated LRRK2 and MBP or GST-4E-BP1 could be detected separately an a single gel. Recombinant proteins and inhibitors were incubated at 30° C. in kinase assay buffer containing 20 mM Hepes (pH 7.4), 5 mM EGTA, and 20 mM β-glycerol phosphate. 0.5 μg MBP (Upstate) or 0.5 μg GST-4B-BP1, 50 μM ATP (Sigma), 20 mM MgCl2, and 1 μCi [γ-32P] ATP (PerkinElmer) was added after 5 min. The reaction was performed at 30° C. to reduce non-specific 32P incorporation for 15 min and terminated by the addition of 5×Laemmili sample buffer. […] Gels were stained by coomassie brilliant blue after fixation with 10% acetic acid and 40% methanol and then exposed to a Phosphoimager. Data were analyzed by ImageQuant 6.0 software.
(§4) To calculate the IC50 value, a dose-response curve was constructed and non-linear regression analysis using the equation for a sigmoid plot.

[4] = target: T2, LRRK2 G2019S; test: In vitro kinase assay: G2019S LRRK2-mediated MBP phosphorylation; format: biochemical; details: mean of three experiments
Description: as §1, §2, §3, §4

[5] = target: T3, LRRK1 WT (Homo sapiens, UniProt Q38SD2); test: In vitro kinase assay: LRRK1 autophosphorylation; format: biochemical
T3 sequence (Q38SD2 whole entry): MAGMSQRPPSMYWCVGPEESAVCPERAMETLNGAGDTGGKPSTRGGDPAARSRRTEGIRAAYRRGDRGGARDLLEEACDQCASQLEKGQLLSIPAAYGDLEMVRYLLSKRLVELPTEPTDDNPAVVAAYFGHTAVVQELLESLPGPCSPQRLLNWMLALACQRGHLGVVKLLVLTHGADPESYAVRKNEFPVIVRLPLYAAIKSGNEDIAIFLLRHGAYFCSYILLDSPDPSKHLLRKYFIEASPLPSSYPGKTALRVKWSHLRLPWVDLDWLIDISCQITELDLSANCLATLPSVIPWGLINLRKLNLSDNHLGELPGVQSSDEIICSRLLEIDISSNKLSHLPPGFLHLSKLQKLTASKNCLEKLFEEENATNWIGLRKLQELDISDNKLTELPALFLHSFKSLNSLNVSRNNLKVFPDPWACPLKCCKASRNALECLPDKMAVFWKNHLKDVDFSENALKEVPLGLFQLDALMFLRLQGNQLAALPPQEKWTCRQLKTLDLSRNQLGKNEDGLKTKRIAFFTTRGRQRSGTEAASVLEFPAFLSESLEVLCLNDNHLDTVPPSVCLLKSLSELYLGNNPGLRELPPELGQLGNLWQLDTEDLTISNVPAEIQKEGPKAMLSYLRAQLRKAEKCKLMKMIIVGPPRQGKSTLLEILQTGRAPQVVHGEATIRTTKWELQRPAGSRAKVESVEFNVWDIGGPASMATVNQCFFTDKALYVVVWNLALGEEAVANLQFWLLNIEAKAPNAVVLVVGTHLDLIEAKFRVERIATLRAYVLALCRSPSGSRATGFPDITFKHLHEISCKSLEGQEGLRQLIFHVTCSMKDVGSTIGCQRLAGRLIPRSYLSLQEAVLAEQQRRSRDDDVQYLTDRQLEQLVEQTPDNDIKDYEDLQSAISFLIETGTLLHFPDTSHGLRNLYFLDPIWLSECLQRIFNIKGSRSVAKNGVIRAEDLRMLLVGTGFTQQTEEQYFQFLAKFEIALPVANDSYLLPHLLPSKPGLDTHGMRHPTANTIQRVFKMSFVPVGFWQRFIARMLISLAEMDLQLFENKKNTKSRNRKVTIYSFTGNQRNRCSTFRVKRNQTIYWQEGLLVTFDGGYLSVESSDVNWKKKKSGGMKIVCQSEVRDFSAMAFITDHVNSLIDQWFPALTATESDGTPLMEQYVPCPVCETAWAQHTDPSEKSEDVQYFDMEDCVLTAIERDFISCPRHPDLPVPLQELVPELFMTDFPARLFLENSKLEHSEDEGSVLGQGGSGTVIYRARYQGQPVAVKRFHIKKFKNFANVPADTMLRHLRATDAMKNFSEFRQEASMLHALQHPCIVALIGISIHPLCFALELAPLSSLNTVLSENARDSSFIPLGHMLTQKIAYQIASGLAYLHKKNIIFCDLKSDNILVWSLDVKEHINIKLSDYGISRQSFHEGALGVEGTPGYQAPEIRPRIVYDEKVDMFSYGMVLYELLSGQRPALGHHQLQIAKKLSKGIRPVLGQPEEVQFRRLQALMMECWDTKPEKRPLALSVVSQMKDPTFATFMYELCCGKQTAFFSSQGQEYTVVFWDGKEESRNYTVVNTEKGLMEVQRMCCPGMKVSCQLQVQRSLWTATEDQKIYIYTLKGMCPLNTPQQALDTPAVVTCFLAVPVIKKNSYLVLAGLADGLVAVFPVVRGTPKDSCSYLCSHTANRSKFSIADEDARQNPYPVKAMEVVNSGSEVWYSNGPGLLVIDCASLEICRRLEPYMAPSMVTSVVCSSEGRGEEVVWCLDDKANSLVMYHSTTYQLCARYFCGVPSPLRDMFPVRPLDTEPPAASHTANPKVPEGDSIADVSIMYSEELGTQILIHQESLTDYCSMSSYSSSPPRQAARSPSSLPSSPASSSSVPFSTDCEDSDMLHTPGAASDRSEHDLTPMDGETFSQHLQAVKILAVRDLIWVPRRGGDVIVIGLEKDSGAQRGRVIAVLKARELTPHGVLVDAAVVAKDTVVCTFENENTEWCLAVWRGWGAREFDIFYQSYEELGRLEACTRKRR

[6] = target: T3, LRRK1 WT; test: In vitro kinase assay: LRRK1-mediated MBP phosphorylation; format: biochemical; details: for IC50: Table 3, mean of three experiments
[7] = system: rat primary cortical neuronal cultures transfected with G2019S LRRK2; test: LRRK2-induced neuronal toxicity in primary cortical neuronal cultures (neurite shortening, TUNEL); format: cell-based; details: 0.5 μM
Description: Representative photomicrographs of each experimental group. LRRK2 and eGFP constructs were combined in a molar ratio of 10:1, respectively, and transfected by using of Lipofectamine 2000 (Invitrogen) at DIV (day in vitro) 14 into rat primary cortical neuronal cultures. Compounds (0.5 μM) were administrated at the time of transfection and continued until toxicity assessments. On DIV 16, images were collected on a Zeiss Automatic stage with Axiovision 6.0. (a) Low magnified photomicrographs; (b and c) High magnified photomicrographs. Scale bar=50 μm (a) and 10 μm (b and c);
Primary cortical neuronal cultures were prepared from gestational day 15 fetal rats as previously described. Gonzalez-Zulueta, M., et al. Manganese superoxide dismutase protects nNOS neurons from NMDA and nitric oxide-mediated neurotoxicity. J Neurosci 18, 2040-2055 (1998). All procedures used in this study were approved by the Johns Hopkins Medical Institute Animal Care Committee. Cell viability assays and DNA fragmentation (TUNEL assay) were performed as previously described. Smith, W. W., et al. Kinase activity of mutant LRRK2 mediates neuronal toxicity. Nat Neurosci 9, 1231-1233 (2006); West, A. B., et al. Parkinson's disease-associated mutations in LRRK2 link enhanced GTP-binding and kinase activities to neuronal toxicity. Hum Mol Genet 16, 223-232 (2007). The cortex was dissected, incubated for 15 min in 0.027% trypsin, and then transferred to modified Eagle's medium (MEM)/10% horse serum/10% fetal bovine serum/2 mM glutamine followed by trituration. Dissociated cells were plated at a density of 3-4×10^5 cells per well in polyornithine-coated plates. After 4 days the cells were treated with 10 μg of 5-fluoro-2′-deoxyuridine to prevent proliferation of nonneuronal cells. Cells were maintained in MEM/5% horse serum/2 mM glutamine in 8% CO2 incubator. The medium was changed twice weekly. For assessment of LRRK2-mediated neuronal injury, LRRK2 and eGFP constructs were combined in a molar ratio of 10:1, respectively, and transfected into neurons with Lipofectamine 2000 (Invitrogen) at DIV (day in vitro) 14. On DIV 16, images were collected on a Zeiss Automatic stage with Axiovision 6.0. Viable neurons were defined as having at least one smooth extension (neurite) with twice the length of the cell body. The percentage of eGFP-positive injured neurons in each experimental group relative to those neurons transfected with eGFP was calculated.

[8] = system: C. elegans expressing LRRK2 G2019S in DA neurons; test: Transgenic nematode model of LRRK2 G2019S-induced DA neurodegeneration; format: in vivo, Caenorhabditis elegans
Description: Nematodes were maintained following the standard procedures. Brenner, S., 771 GENETICS 71-94 (1974). Isogenic worm strains expressing LRRK2, G2019S, UAXX [baInlX; Pdat-1::LRRK2 G2019S, Pdat-1::gfp] were generated via microinjection, integrated into the genome and out-crossed three times. Age-synchronized worms were obtained by treating gravid adults with 2% sodium hypochlorite and 0.5M NaOH to isolate embryos. Lewis, J. A., 48 METHODS CELL BIOL. 3-29 (1995). These embryos were treated with indicated concentrations of LRRK2 kinase inhibitors, which were dissolved in 1% DSMO, for 24 h. at 20° C. with gentle shaking. The worms were then washed and transferred into NGM plates seeded with OP50 bacteria, and incubated as 20° C. The six anterior DA neurons (4 CEP and 2 ADE neurons) of 30 animals/trial were examined for neurodegeneration when the animals were 7 days old. A total of 90 animals for each treatment were analyzed (3 trials of 30 animals/trial). […] See Hamamichi et al., 105(2) PROC. NATL. ACAD. SCI. USA 728-33 (2008); and Cao et al, 25 J. NEUROSCI. 3801-12 (2005). For each trial, 30 worms were transferred into a 2% agarose pad, immobilized with 2 mM levamisole, and analyzed using Nikon Eclipse E800 epifluorescence microscope equipped with Endow GFP HYQ filter cube (Chrom Technology, Rockingham, Vt.). Images were captured with a Cool Snap CCD camera (Photometrics, Tucson, Ariz.) driven by MetaMorph software (Universal Imaging, West Chester, Pa.).
To determine whether the LRRK2 kinase inhibitors protect against LRRK2-induced neurodegeneration in vivo, the LRRK2 kinase inhibitors were tested in the C. elegans model of LRRK2 G2019S-induced neurodegeneration described above. The DA transporter (dat-1) was used to direct expression of LRRK2 G2019S in DA neurons.

| Compound | effect on LRRK1 autophosphorylation [5] | effect on LRRK1 MBP phosphorylation [6] | IC50 [6] | IC50 ([1]; Table 2) | LRRK2 autophosphorylation Average ± SEM [1] | effect on LRRK2 autophosphorylation [1] | IC50 ([2]; Table 2) | MBP phosphorylation Average ± SEM [2] | effect on LRRK2-mediated phosphorylation of MBP [2] | IC50 ([3]; Table 2) | IC50 ([4]; Table 2) | other results |
| --- | --- | --- | --- | --- | --- | --- | --- | --- | --- | --- | --- | --- |
| Raf inhibitor IV | minimal to no effect | minimal to no effect | 21.5 µM | – | – | – | – | – | – | – | – | selectivity for LRRK2 kinase activity ([1]; LRRK2 versus LRRK1 kinase activity): relatively selective; IC50 ([1]; Table 3): 5.43 µM; IC50 ([2]; Table 3): 3.61 µM; IC50 ([3]; Table 3): 3.94 µM; IC50 ([4]; Table 3): 6.51 µM |
| COc1c(C=O)c(O)cc2c1C(=O)c1ccccc1C2=O [Inhibitor 22, Damnacanthal, reference compound] | – | – | – | 19.1 µM | 34.7 ± 6.2 % of control | substantially inhibited | 7.81 µM | 35.7 ± 10.3 % of control | substantially inhibited | 5.25 µM | 9.45 µM | – |
| CN(C)CCCn1cc(C2=C(c3c[nH]c4ccccc34)C(=O)NC2=O)c2ccccc21 [Inhibitor 31, GP109203X, reference compound] | – | – | – | 5.27 µM | 16.1 ± 8.8 % of control | substantially inhibited | 2.19 µM | 13.0 ± 8.2 % of control | substantially inhibited | 17 µM | 2.62 µM | – |
| CNC(=O)c1cc(Oc2ccc(NC(=O)Nc3ccc(Cl)c(C(F)(F)F)c3)cc2)ccn1 [Sorafenib] | minimal to no effect | minimal to no effect | 13.8 µM | – | – | – | – | – | – | – | – | G2019S LRRK2 toxicity [7]: completely protected; worms with wild-type DA neurons (4 CEP and 2 ADE) ([8]; 25 μM, 7-day-old worms, n=90, 48% with 1% DMSO): 62%; rescue of DA neurodegeneration ([8]; 7 day-old worms): protect worms from neurodegeneration |
| COc1ccc(S(=O)(=O)N(CCO)c2ccccc2CN(C)C/C=C/c2ccc(Cl)cc2)cc1 [Inhibitor 41, KN-93] | no effect | no effect | – | – | – | – | – | – | no effect | – | – | – |
